In US20260365653A1, “IRREVERSIBLE MUTEGFR INHIBITORS” (Bayer Aktiengesellschaft, priority 2022, published 2026) one finds IC50 data, which are given here for 24 molecules.

In experiment [1] the target is T1, mutEGFR (D770_N771insNPG, T790) (Homo sapiens, UniProt P00533, INS770NPG/T790M).
T1 construct: exact insNPG construct not described; in-house EGFR proteins were N-terminal GST fusions from baculovirus/insect cells (borders R669-A1210 given only for WT, insSVD, insASV)
Description: mutEGFR (D770_N771insNPG, T790) kinase assay. The class given is biochemical. As to conditions: Table 2a, D770_N771insNPG. The source says:
The different EGFR proteins used in the biochemical kinase activity inhibition assays were generated inhouse by expression in insect cells using Baculo Virus system and subsequent purification as described in the following paragraphs.
The cDNAs encoding the various protein sequences from human EGFR human (P00533) were optimized for expression in eukaryotic cells and synthesized by the GeneArt Technology at Life Technologies.

Experiment [2] addresses T2, mutEGFR (D770_N771insSVD) (Homo sapiens, UniProt P00533, DUP768-770).
T2 construct: GST-EGFR #3 (SVD between D770 and N771); made in house; host or cells: Sf9 insect cells (baculovirus)
Description: Exon20-Mutant-EGFR (D770_N771insSVD) kinase assay (TR-FRET). As to conditions: mutEGFR (D770_N771insSVD) kinase assay IC50, Table 2a; D770_N771insSVD; 2 mM ATP. The class given is biochemical. A general note: In TR-FRET formats the signal depends on donor and acceptor labels being close together.

A further experiment deals with BA/F3 (insSVD) cells. Description: Ba/F3-EGFR-insSVD cell survival assay (Cell Titer-Glo). As to conditions: Mus musculus, BaF3, 48 h, Table 3a, cell survival, Cell Titer-Glo, with 10 ng/ml EGF, without IL-3. The class given is cell-based. The gist of the method: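 Ba/F3 cells stably expressing retroviral EGFR-insSVD or insSVD T790M, grown without IL-3 on 10 ng/ml EGF, 4000 cells/well. Compound pinned in, 48 h at 37° C. Viability by CellTiter-Glo luminescence.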

T1 sequence (P00533 with tags, fused parts or gaps INS770NPG/T790M limits assumed): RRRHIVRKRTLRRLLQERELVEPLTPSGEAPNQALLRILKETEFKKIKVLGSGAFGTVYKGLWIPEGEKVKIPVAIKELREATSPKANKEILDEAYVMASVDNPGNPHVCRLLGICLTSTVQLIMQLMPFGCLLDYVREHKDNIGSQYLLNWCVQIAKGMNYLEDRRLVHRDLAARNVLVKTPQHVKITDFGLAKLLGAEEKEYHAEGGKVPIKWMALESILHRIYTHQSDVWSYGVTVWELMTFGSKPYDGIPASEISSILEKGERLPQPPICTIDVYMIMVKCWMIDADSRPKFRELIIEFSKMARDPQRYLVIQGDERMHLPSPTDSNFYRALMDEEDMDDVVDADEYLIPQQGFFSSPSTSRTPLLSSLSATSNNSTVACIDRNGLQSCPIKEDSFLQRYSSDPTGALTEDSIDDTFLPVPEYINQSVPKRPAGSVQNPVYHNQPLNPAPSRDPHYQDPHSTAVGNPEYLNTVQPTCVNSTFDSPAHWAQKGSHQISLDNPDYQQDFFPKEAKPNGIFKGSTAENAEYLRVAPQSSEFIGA
T2 sequence (P00533 with tags, fused parts or gaps DUP768-770): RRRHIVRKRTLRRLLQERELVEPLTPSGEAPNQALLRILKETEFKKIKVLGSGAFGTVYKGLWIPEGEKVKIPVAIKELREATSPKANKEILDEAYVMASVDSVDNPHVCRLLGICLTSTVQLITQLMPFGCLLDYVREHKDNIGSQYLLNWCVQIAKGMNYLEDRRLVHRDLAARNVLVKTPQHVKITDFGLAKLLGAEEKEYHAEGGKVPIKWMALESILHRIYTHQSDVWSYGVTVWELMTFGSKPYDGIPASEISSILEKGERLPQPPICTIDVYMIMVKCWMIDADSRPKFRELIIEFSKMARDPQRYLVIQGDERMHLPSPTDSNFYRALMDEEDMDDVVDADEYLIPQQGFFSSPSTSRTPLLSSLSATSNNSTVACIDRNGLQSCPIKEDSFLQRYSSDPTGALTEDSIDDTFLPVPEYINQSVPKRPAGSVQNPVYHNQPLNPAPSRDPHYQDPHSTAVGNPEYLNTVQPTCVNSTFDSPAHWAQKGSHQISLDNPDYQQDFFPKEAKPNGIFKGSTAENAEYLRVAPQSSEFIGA

For the molecule `C=CC(=O)N1CCn2nc(-c3cccc(C#N)c3F)c(-c3ccncc3)c2C1` [Example 120, 2-fluoro-3-[5-(prop-2-enoyl)-3-(pyridin-4-yl)-4,5,6,7-tetrahydropyrazolo[1,5-a]pyrazin-2-yl]benzonitrile], the IC50 (as a rule, the point on the concentration scale where inhibition reaches its midpoint) in experiment [1] amounted to 0.0503 µM; in experiment [2], 0.0505 µM; in the experiment with BA/F3 (insSVD) cells, 0.933 µM.

Turning to `C=CC(=O)N1Cc2c(-c3ccncc3)c(-c3ccc(Cl)cc3)nn2C[C@@H]1C` [Example 122, 1-[(6S)-2-(4-chlorophenyl)-6-methyl-3-(pyridin-4-yl)-6,7-dihydropyrazolo[1,5-a]pyrazin-5(4H)-yl]prop-2-en-1-one], the IC50 is 0.000803 µM in experiment [1], 0.000369 µM in experiment [2] and 0.0138 µM in the experiment with BA/F3 (insSVD) cells.

On to `C=CC(=O)N1Cc2c(-c3ccncc3)c(-c3ccc(Cl)cc3)nn2C[C@H]1C` [Example 123, 1-[(6R)-2-(4-chlorophenyl)-6-methyl-3-(pyridin-4-yl)-6,7-dihydropyrazolo[1,5-a]pyrazin-5(4H)-yl]prop-2-en-1-one], for which the IC50 in experiment [1] stood at 0.00195 µM; in experiment [2], 0.00119 µM; in the experiment with BA/F3 (insSVD) cells, 0.0237 µM.

Consider `C=CC(=O)N1Cc2c(-c3ccncc3)c(-c3ccc(C(F)(F)F)cc3F)nn2C[C@@H]1C` [Example 124, 1-[(6S)-2-[2-fluoro-4-(trifluoromethyl)phenyl]-6-methyl-3-(pyridin-4-yl)-6,7-dihydropyrazolo[1,5-a]pyrazin-5(4H)-yl]prop-2-en-1-one], for which the figures for the IC50 (in experiment [1]; in experiment [2]; in the experiment with BA/F3 (insSVD) cells) were 0.00208 µM, 0.000859 µM and 0.0304 µM, respectively.

On to `C=CC(=O)N1Cc2c(-c3ccncc3)c(-c3cccc(C#N)c3)nn2C[C@H]1C` [Example 126, 3-[(6R)-6-methyl-5-(prop-2-enoyl)-3-(pyridin-4-yl)-4,5,6,7-tetrahydropyrazolo[1,5-a]pyrazin-2-yl]benzonitrile], for which the IC50 in experiment [1] was determined as 0.00452 µM; in experiment [2], 0.0124 µM; with BA/F3 (insSVD) cells, 0.0865 µM.

Regarding `C=CC(=O)N1Cc2c(-c3ccncc3)c(-c3cccc(C#N)c3)nn2C[C@@H]1C` [Example 127, 3-[(6S)-6-methyl-5-(prop-2-enoyl)-3-(pyridin-4-yl)-4,5,6,7-tetrahydropyrazolo[1,5-a]pyrazin-2-yl]benzonitrile], the IC50 in experiment [1] stood at 0.00565 µM; in experiment [2], 0.0254 µM; in the experiment with BA/F3 (insSVD) cells, 0.039 µM.

In the case of `C=CC(=O)N1CCn2nc(-c3ccc(OC(F)F)cc3)c(-c3ccncc3)c2C1` [Example 128, 1-{2-[4-(difluoromethoxy)phenyl]-3-(pyridin-4-yl)-6,7-dihydropyrazolo[1,5-a]pyrazin-5(4H)-yl}prop-2-en-1-one], the IC50 in experiment [1] stood at 0.0138 µM; in experiment [2], 0.00362 µM; in the experiment with BA/F3 (insSVD) cells, 0.139 µM.

For `C=CC(=O)N1CCn2nc(-c3ccc(OC(F)(F)F)cc3)c(-c3ccncc3)c2C1` [Example 129, 1-[3-(pyridin-4-yl)-2-[4-(trifluoromethoxy)phenyl]-6,7-dihydropyrazolo[1,5-a]pyrazin-5(4H)-yl]prop-2-en-1-one], the IC50 is 0.016 µM in experiment [1], 0.00297 µM in experiment [2] and 0.106 µM in the experiment on BA/F3 (insSVD) cells.

Consider `C=CC(=O)N1CCn2nc(-c3ccc(OCC)cc3)c(-c3ccncc3)c2C1` [Example 130, 1-[2-(4-ethoxyphenyl)-3-(pyridin-4-yl)-6,7-dihydropyrazolo[1,5-a]pyrazin-5(4H)-yl]prop-2-en-1-one], for which the IC50 in experiment [1] stood at 0.0455 µM; in experiment [2], 0.00669 µM; with BA/F3 (insSVD) cells it was 0.98 µM.

Turning to `C=CC(=O)N1CCn2nc(-c3ccc(C(F)F)cc3)c(-c3ccncc3)c2C1` [Example 131, 1-{2-[4-(difluoromethyl)phenyl]-3-(pyridin-4-yl)-6,7-dihydropyrazolo[1,5-a]pyrazin-5(4H)-yl}prop-2-en-1-one], the IC50 in experiment [1] is 0.00801 µM; in experiment [2], 0.00179 µM; in the experiment with BA/F3 (insSVD) cells, 0.0613 µM.

As to `C=CC(=O)N1CCn2nc(-c3cc(Cl)ccc3F)c(-c3ccncc3)c2C1` [Example 132, 1-[2-(5-chloro-2-fluorophenyl)-3-(pyridin-4-yl)-6,7-dihydropyrazolo[1,5-a]pyrazin-5(4H)-yl]prop-2-en-1-one], the half-maximal inhibitory concentration (IC50) amounted to 0.00131 µM in experiment [1], 0.000957 µM in experiment [2] and 0.0442 µM with BA/F3 (insSVD) cells.

`C=CC(=O)N1CCn2nc(-c3cccc(Cl)c3)c(-c3ccncc3)c2C1` [Example 133, 1-[2-(3-chlorophenyl)-3-(pyridin-4-yl)-6,7-dihydropyrazolo[1,5-a]pyrazin-5(4H)-yl]prop-2-en-1-one]: the IC50 is 0.00383 µM in experiment [1], 0.00301 µM in experiment [2] and 0.172 µM with BA/F3 (insSVD) cells.

As to `C=CC(=O)N1CCn2nc(-c3ccc(C(F)(F)F)c(F)c3)c(-c3ccncc3)c2C1` [Example 134, 1-{2-[3-fluoro-4-(trifluoromethyl)phenyl]-3-(pyridin-4-yl)-6,7-dihydropyrazolo[1,5-a]pyrazin-5(4H)-yl}prop-2-en-1-one], the 50% inhibitory concentration (IC50) in experiment [1] is 0.00918 µM; in experiment [2], 0.0021 µM; in the experiment with BA/F3 (insSVD) cells, 0.0651 µM.

For the molecule `C=CC(=O)N1CCn2nc(-c3ccc(C(F)(F)F)cc3F)c(-c3ccncc3)c2C1` [Example 135, 1-{2-[2-fluoro-4-(trifluoromethyl)phenyl]-3-(pyridin-4-yl)-6,7-dihydropyrazolo[1,5-a]pyrazin-5(4H)-yl}prop-2-en-1-one], the values for the IC50 (in experiment [1]; in experiment [2]; in the experiment with BA/F3 (insSVD) cells) were 0.0018 µM, 0.000471 µM and 0.0277 µM, respectively.

For the molecule `C=CC(=O)N1CCn2nc(-c3ccccc3F)c(-c3ccncc3)c2C1` [Example 136, 1-[2-(2-fluorophenyl)-3-(pyridin-4-yl)-6,7-dihydropyrazolo[1,5-a]pyrazin-5(4H)-yl]prop-2-en-1-one], the IC50 in experiment [1] was 0.00474 µM; in experiment [2], 0.0011 µM; in the experiment with BA/F3 (insSVD) cells, 0.0683 µM.

On to `C=CC(=O)N1CCn2nc(-c3ccccc3Cl)c(-c3ccncc3)c2C1` [Example 137, 1-[2-(2-chlorophenyl)-3-(pyridin-4-yl)-6,7-dihydropyrazolo[1,5-a]pyrazin-5(4H)-yl]prop-2-en-1-one], for which the results for the IC50 (in experiment [1]; in experiment [2]; with BA/F3 (insSVD) cells) were 0.0108 µM, 0.0016 µM and 0.144 µM, respectively.

For `C=CC(=O)N1CCn2nc(-c3ccc(C)cc3)c(-c3ccncc3)c2C1` [Example 138, 1-[2-(4-methylphenyl)-3-(pyridin-4-yl)-6,7-dihydropyrazolo[1,5-a]pyrazin-5(4H)-yl]prop-2-en-1-one], the figures for the IC50 (in experiment [1]; in experiment [2]; in the experiment with BA/F3 (insSVD) cells) were 0.00293 µM, 0.000981 µM and 0.0232 µM, respectively.

As for `C=CC(=O)N1CCn2nc(-c3cccc(C)c3)c(-c3ccncc3)c2C1` [Example 139, 1-[2-(3-methylphenyl)-3-(pyridin-4-yl)-6,7-dihydropyrazolo[1,5-a]pyrazin-5(4H)-yl]prop-2-en-1-one], the IC50 in experiment [1] was determined as 0.00138 µM; in experiment [2], 0.000841 µM; with BA/F3 (insSVD) cells, 0.0259 µM.

`C=CC(=O)N1CCn2nc(-c3ccc(CC)cc3)c(-c3ccncc3)c2C1` [Example 140, 1-[2-(4-ethylphenyl)-3-(pyridin-4-yl)-6,7-dihydropyrazolo[1,5-a]pyrazin-5(4H)-yl]prop-2-en-1-one]: the figures for the IC50 (in experiment [1]; in experiment [2]; with BA/F3 (insSVD) cells) were 0.00308 µM, 0.000812 µM and 0.0514 µM, respectively.

On to `C=CC(=O)N1CCn2nc(-c3cccc(C#N)c3)c(-c3ccncc3)c2C1` [Example 141, 3-[5-(prop-2-enoyl)-3-(pyridin-4-yl)-4,5,6,7-tetrahydropyrazolo[1,5-a]pyrazin-2-yl]benzonitrile], for which the IC50 in experiment [1] was 0.0197 µM; in experiment [2], 0.0324 µM; in the experiment with BA/F3 (insSVD) cells, 0.177 µM.

Regarding `C=CC(=O)N1CCn2nc(-c3ccc(OC)cc3F)c(-c3ccncc3)c2C1` [Example 142, 1-[2-(2-fluoro-4-methoxyphenyl)-3-(pyridin-4-yl)-6,7-dihydropyrazolo[1,5-a]pyrazin-5(4H)-yl]prop-2-en-1-one], the IC50 came to 0.00283 µM in experiment [1], 0.000739 µM in experiment [2] and 0.053 µM with BA/F3 (insSVD) cells.

Regarding `C=CC(=O)N1CCn2nc(-c3ccc(SC(F)(F)F)cc3)c(-c3ccncc3)c2C1` [Example 143, 1-[3-(pyridin-4-yl)-2-{4-[(trifluoromethyl)sulfanyl]phenyl}-6,7-dihydropyrazolo[1,5-a]pyrazin-5(4H)-yl]prop-2-en-1-one], the IC50 was determined as 0.0719 µM in experiment [1], 0.0115 µM in experiment [2] and 0.673 µM in the experiment with BA/F3 (insSVD) cells.

For `CN(C)C/C=C/C(=O)N1CCn2nc(-c3ccc(OC(F)F)cc3)c(-c3ccncc3)c2C1` [Example 144, (2E)-1-{2-[4-(difluoromethoxy)phenyl]-3-(pyridin-4-yl)-6,7-dihydropyrazolo[1,5-a]pyrazin-5(4H)-yl}-4-(dimethylamino)but-2-en-1-one], the IC50 in experiment [1] was found to be 0.031 µM; in experiment [2], 0.00869 µM; with BA/F3 (insSVD) cells, 1.49 µM.

Take `CN(C)C/C=C/C(=O)N1CCn2nc(-c3ccc(OC(F)(F)F)cc3)c(-c3ccncc3)c2C1` [Example 145, (2E)-4-(dimethylamino)-1-[3-(pyridin-4-yl)-2-[4-(trifluoromethoxy)phenyl]-6,7-dihydropyrazolo[1,5-a]pyrazin-5(4H)-yl]but-2-en-1-one]: the IC50 in experiment [1] came out at 0.0604 µM; in experiment [2], 0.00901 µM; with BA/F3 (insSVD) cells, 0.607 µM.
